No end group written: not given here.
Columns and labels:
CGRP [1] = settings: mean ± SEM, cited from earlier work
CGRP [2] = tested on: CGRP; set-up: method as in PMID 16472331; settings: MWA, mean ± SEM, cited from earlier work
CGRP [3] = tested on: CGRP; set-up: method as in PMID 15689192; settings: MWA, ictal, cited from earlier work
CGRP [4] = tested on: CGRP; set-up: method as in PMID 8388188; settings: 8 migraineurs, ictal, subcutaneous sumatriptan, mean ± SE; pre-treatment 60 ± 8; cited from earlier work
[5] = Long-term storage of serum at -80°C, sandwich ELISA; format: in vitro ADME; settings: human serum
Method: (§1) We tested 4 different ELISA kit references with serum samples, 2 based on competitive ELISA (Biorbyt, UK, ref: orb438605; BMA Biomedicals, Switzerland, ref: S-1198), specifically designed for the detection of total-CGRP, and 2 based on ELISA sandwich (Abbexa, UK, ref: abx257902; CUSABIO, China, ref: CSB-E08210h), designed for the detection of alpha and beta-CGRP, respectively. All 4 of these products were assayed multiple times (at least 4 for each kit reference) to analyse the optimal dilutions of the samples, their reproducibility and their reported concentrations. All the procedures were carried out strictly following the manufacturer’s instructions of use of their products, they were performed by the same researcher, using the same equipment, and in the same facilities. […] All the samples were measured in duplicate, obtained from morning blood extractions, 9–12 am, from patients in a fast of at least 12h. These samples were let to clot for 10–15 min, centrifuged at 3500 rpm for 10 min and then immediately stored at -80°C until assayed. A standard curve was generated for every single batch, and they were calculated using a 4-parameter logistic (4-PL) regression with r^2 > 0.999.
We assayed 11 consecutive samples from previous works (36.4% male; age range: 26–65) that had been stored at -80°C for more than 6 months and which had been assayed altogether before being stored for a month and before reaching this time point.

[6] = Influence of sample processing time: serum kept at 4°C before freezing at -80°C, sandwich ELISA; format: in vitro ADME, human
Method: as §1
We recruited 6 individuals without history of migraine and subjective absence of headache at the day of the sampling (50% male; age range: 24–65 years). […] The blood was then let to clot for 10 min at room temperature, then centrifuged at 3500 rpm for 10 min to obtain serum. Serum was divided into 4 tubes. First one was immediately stored at -80°C, the other three were kept in the refrigerator at 4°C for, 2, 4 and 24 h respectively before frozen. None of the samples were added peptidase inhibitor. These samples were measured by triplicate.

[7] = frozen samples; cited from earlier work
Text: Another point recurrently mentioned in the literature is the long-term stability of the molecules when frozen. […] This opens up the question about whether c ...

[8] = infused in humans; cited from earlier work
Text: The relevance of the peptide goes beyond its use as a therapeutical target, having been proposed as a biomarker in migraine.

CGRP [9] = settings: 32 MWA; exact values not displayed; cited from earlier work
Text: Table 1 Charasteristics of the studies measuring CGRP in migraine patients | column: Main findings relate to CGRP

CGRP [10] = settings: cited from earlier work; for plasma CGRP 4 months after treatment cessation (V2), median (IQR) / plasma CGRP at last injection (V1), median (IQR): EM and CM patients, controls 32.6(21.3–44.6)
Text: Table 1 Charasteristics of the studies measuring CGRP in migraine patients | column: Concentrations

[11] = EM without aura, mean ± SD, T0 86.9 ± 24.1
[12] = healthy controls, mean ± SD, T0 87.9 ± 21.3

Molecule: O=[N+]([O-])OCC(CO[N+](=O)[O-])O[N+](=O)[O-] [nitroglyceri, nitroglycerin]
- plasma CGRP, controls T1 (CGRP [1]; basal 15.1 ± 2.0): 17.5 pmol/L
- plasma CGRP, controls T2 (CGRP [1]; basal 15.1 ± 2.0): 16.5 pmol/L
- plasma CGRP, controls T3 (CGRP [1]; basal 15.1 ± 2.0): 15.3 pmol/L
- plasma CGRP, migraineurs T1 (CGRP [1]; basal 18.4 ± 1.7): 19.7 pmol/L
- plasma CGRP, migraineurs T2 (CGRP [1]; basal 18.4 ± 1.7): 22.2 pmol/L
- plasma CGRP, migraineurs T3 (CGRP [1]; basal 18.4 ± 1.7): 21.0 pmol/L

Molecule: CN(C)CCc1c[nH]c2ccc(Cn3cncn3)cc12 [rizatriptan]
- plasma (JV) CGRP, non-responders 1 h (CGRP [2]; before rizatriptan 7.4 ± 2.4): 7.6 pmol/L
- plasma (JV) CGRP, non-responders 2 h (CGRP [2]; before rizatriptan 7.4 ± 2.4): 7.9 pmol/L
- plasma (JV) CGRP, non-responders 4 h (CGRP [2]; before rizatriptan 7.4 ± 2.4): 7.7 pmol/L
- plasma (JV) CGRP, non-responders 6 h (CGRP [2]; before rizatriptan 7.4 ± 2.4): 7.3 pmol/L
- plasma (JV) CGRP, non-responders 12 h (CGRP [2]; before rizatriptan 7.4 ± 2.4): 7.2 pmol/L
- plasma (JV) CGRP, responders 1 h (CGRP [2]; before rizatriptan 12.2 ± 3.2): 7.6 pmol/L
- plasma (JV) CGRP, responders 2 h (CGRP [2]; before rizatriptan 12.2 ± 3.2): 3.4 pmol/L
- plasma (JV) CGRP, responders 4 h (CGRP [2]; before rizatriptan 12.2 ± 3.2): 2.6 pmol/L
- plasma (JV) CGRP, responders 6 h (CGRP [2]; before rizatriptan 12.2 ± 3.2): 2.3 pmol/L
- plasma (JV) CGRP, responders 12 h (CGRP [2]; before rizatriptan 12.2 ± 3.2): 2.1 pmol/L

Molecule: CNS(=O)(=O)Cc1ccc2[nH]cc(CCN(C)C)c2c1 [sumatriptan]
- plasma CGRP 1 h after sumatriptan, responders (CGRP [3]; n = 6, mean ± SEM, before 16.9 ± 2.8): 14.7 pmol/L
- plasma CGRP 1 h after sumatriptan, non-responders (CGRP [3]; n = 13, mean ± SEM, before 24.3 ± 2.5): 23.8 pmol/L
- plasma (JV) CGRP post-treatment (CGRP [4]): 40 pmol/L

Molecule: Calcitonin gene-related peptide [CGRP]
- effect of storage at -80°C of more than 6 months on CGRP levels [5]: decrease
- CGRP content in serum stored at 4°C ([6]; first 24 h at 4°C after clotting and immediate centrifugation): preserved
- effect of frozen storage of 8 months on CGRP concentration [7]: significantly decrease
- effect of infusion in humans [8]: induction of migraine-like headaches

Molecule: Pituitary adenylate cyclase activating peptide-38 (HSDGIFTDSYSRYRKQMAVKKYLAAVLGKRYKQRVKNK; ends and bridges not checked; UniProt P18509 132-169, looked up) [PACAP38]
- effect of PACAP38 infusion on CGRP concentrations (CGRP [9]): PACAP38 infusion do not causes changes in CGRP concentrations

Molecule: Vasoactive intestinal peptide (HSDAVFTDNYTRLRKQMAVKKYLNSILN; ends and bridges not checked; UniProt P01282 125-152, looked up) [VIP]
- plasma CGRP, VIP infusion Migraine T30 (CGRP [10]; [11]): 94.2 pg/mL
- plasma CGRP, VIP infusion Migraine T60 (CGRP [10]; [11]): 95.1 pg/mL
- plasma CGRP, VIP infusion Migraine T90 (CGRP [10]; [11]): 87.5 pg/mL
- plasma CGRP, VIP infusion Migraine T120 (CGRP [10]; [11]): 88.7 pg/mL
- plasma CGRP, VIP infusion Migraine T150 (CGRP [10]; [11]): 85.1 pg/mL
- plasma CGRP, VIP infusion Migraine T180 (CGRP [10]; [11]): 83.3 pg/mL
- plasma CGRP, VIP infusion HC T30 (CGRP [10]; [12]): 102.1 pg/mL
- plasma CGRP, VIP infusion HC T60 (CGRP [10]; [12]): 109.3 pg/mL
- plasma CGRP, VIP infusion HC T90 (CGRP [10]; [12]): 104.1 pg/mL
- plasma CGRP, VIP infusion HC T120 (CGRP [10]; [12]): 110.1 pg/mL
- plasma CGRP, VIP infusion HC T150 (CGRP [10]; [12]): 97.8 pg/mL
- plasma CGRP, VIP infusion HC T180 (CGRP [10]; [12]): 98.2 pg/mL

Molecule: beta-CGRP: endogenous neuropeptide encoded in CALCB, differs from alpha-CGRP in 3 of 37 amino acids
- serum concentration, measured before one month of storage at -80°C ([5]; 11 samples, ELISA Abbexa (alpha) / CUSABIO (beta), mean ± SD): 4.9 ± 2.0 pg/mL
- serum concentration after more than 6 months of storage at -80°C ([5]; same 11 samples, ELISA Abbexa (alpha) / CUSABIO (beta), mean ± SD, p < 0.01 vs first measurement): 3.0 ± 1.3 pg/mL
- serum concentration after 2 h at 4°C ([6]; human serum, no peptidase inhibitor, 2 h at 4°C before -80°C, ELISA Abbexa (alpha) / CUSABIO (beta), mean ± SD, 6 subjects, triplicate): 4.9 ± 1.7 pg/mL
- serum concentration after 4 h at 4°C ([6]; human serum, no peptidase inhibitor, 4 h at 4°C before -80°C, ELISA Abbexa (alpha) / CUSABIO (beta), mean ± SD, 6 subjects, triplicate): 4.7 ± 1.5 pg/mL
- serum concentration after 24 h at 4°C ([6]; human serum, no peptidase inhibitor, 24 h at 4°C before -80°C, ELISA Abbexa (alpha) / CUSABIO (beta), mean ± SD, 6 subjects, triplicate): 4.4 ± 1.8 pg/mL
- serum concentration, deep frozen right away ([6]; human serum, no peptidase inhibitor, clot 10 min RT, 3500 rpm 10 min, immediately -80°C, ELISA Abbexa (alpha) / CUSABIO (beta), mean ± SD, 6 subjects, triplicate): 4.6 ± 1.6 pg/mL

B1: Galcanezumab: anti-CGRP monoclonal antibody (antibody, chains of the INN, looked up, V domains shown)
VH: QVQLVQSGAEVKKPGSSVKVSCKASGYTFGNYWMQWVRQAPGQGLEWMGAIYEGTGKTVYIQKFADRVTITADKSTSTAYMELSSLRSEDTAVYYCARLSDYVSGFGYWGQGTTVTVSS
VL: DIQMTQSPSSLSASVGDRVTITCRASKDISKYLNWYQQKPGKAPKLLIYYTSGYHSGVPSRFSGSGSGTDFTLTISSLQPEDFATYYCQQGDALPPTFGGGTKVEIK
- plasma CGRP 4 months after treatment cessation (V2), median (IQR) (CGRP [10]): 1853.2 pg/mL
- plasma CGRP at last injection (V1), median (IQR) (CGRP [10]): 5439.3 pg/mL

B2: Erenumab: anti-CGRP(-receptor) monoclonal antibody (antibody, chains of the INN, looked up, V domains shown)
VH: QVQLVESGGGVVQPGRSLRLSCAASGFTFSSFGMHWVRQAPGKGLEWVAVISFDGSIKYSVDSVKGRFTISRDNSKNTLFLQMNSLRAEDTAVYYCARDRLNYYDSSGYYHYKYYGMAVWGQGTTVTVSS
VL: QSVLTQPPSVSAAPGQKVTISCSGSSSNIGNNYVSWYQQLPGTAPKLLIYDNNKRPSGIPDRFSGSKSGTSTTLGITGLQTGDEADYYCGTWDSRLSAVVFGGGTKLTVL
- serum CGRP at T1, median (IQR) (CGRP [10]; 94 erenumab treated EM and CM, basal 14.1 (8.2–33.9)): 13.8 pg/mL
- plasma CGRP 4 months after treatment cessation (V2), median (IQR) (CGRP [10]): 30.3 pg/mL
- plasma CGRP at last injection (V1), median (IQR) (CGRP [10]): 31.2 pg/mL
- salivary CGRP at M3, EM without depression (CGRP [10]; mean ± SD, basal 198.90 ± 27.89): 235.05 pg/mL
- salivary CGRP at M3, CM with depression (CGRP [10]; n = 6, mean ± SD, basal 460.69 ± 57.24): 446.99 pg/mL
- salivary CGRP at M3, CM without depression (CGRP [10]; n = 10, mean ± SD, basal 194.34 ± 43.75): 256.34 pg/mL

B3: Fremanezumab: anti-CGRP monoclonal antibody (antibody, chains of the INN, looked up, V domains shown)
VH: EVQLVESGGGLVQPGGSLRLSCAASGFTFSNYWISWVRQAPGKGLEWVAEIRSESDASATHYAEAVKGRFTISRDNAKNSLYLQMNSLRAEDTAVYYCLAYFDYGLAIQNYWGQGTLVTVSS
VL: EIVLTQSPATLSLSPGERATLSCKASKRVTTYVSWYQQKPGQAPRLLIYGASNRYLGIPARFSGSGSGTDFTLTISSLEPEDFAVYYCSQSYNYPYTFGQGTKLEIK
- plasma CGRP 4 months after treatment cessation (V2), median (IQR) (CGRP [10]): 34.3 pg/mL
- plasma CGRP at last injection (V1), median (IQR) (CGRP [10]): 29.4 pg/mL

From PMC11057141, “Untangling the mess of CGRP levels as a migraine biomarker: an in-depth literature review and analysis of our experimental experience” (The Journal of Headache and Pain, 2024)
